The results in this text go back to ChEMBL document CHEMBL5137022, “Antitumor Activity of Rutaecarpine in Human Colorectal Cancer Cells by Suppression of Wnt/β-Catenin Signaling” (J Nat Prod, 2022).

By IC50 is commonly meant the concentration that gives 50% inhibition.

Molecules are shown by their SMILES.

In experiment [1] the test system is LS174T. Kind of experiment: Induction of cell cycle arrest in human LS174T cells assessed as accumulation of cells at sub-G1 phase at 10 uM measured after 24 hrs by RNase A/propidium iodide staining based flow cytometric analysis (reference value: 1.3 %). The class given is functional. (In general: Flow cytometry measures light scatter and fluorescence of single cells or particles in a stream.)

The test system of experiment [2] is CCD-841CoN. Kind of experiment: Antiproliferative activity against human CCD-841CoN cells assessed as reduction in cell viability measured after 72 hrs by SRB assay. The class given is functional, cell-based. (In SRB staining, fixed cells bind dye roughly in proportion to their protein.)
Experiment [3] concerns SW480. Description: Antiproliferative activity against human SW480 cells harboring wild type beta-catenin assessed as reduction in cell viability measured after 72 hrs by SRB assay. The class given is functional, cell-based. To be noted: SW480, 72 h.
The subject of experiment [4] is LS174T. Kind of experiment: Inhibition of cell migration in human LS174T cells assessed as reduction in wound closure incubated for 24 hrs by wound healing assay. The class given is functional, cell-based. To be noted: dose 2-8 µM, DDE = dose-dependent effect.
Experiment [5] deals with LS174T. Kind of experiment: Induction of cell cycle arrest in human LS174T cells assessed as accumulation of cells at G2/M phase at 20 uM measured after 24 hrs by RNase A/propidium iodide staining based flow cytometric analysis (reference value: 12.2 %). The class given is functional.
The subject of experiment [6] is LS174T. Kind of experiment: Induction of cell cycle arrest in human LS174T cells assessed as accumulation of cells at G0/G1 phase at 20 uM measured at 24 hrs by RNase A/propidium iodide staining based flow cytometric analysis (reference value: 74.8 %). The class given is functional.
Experiment [7] deals with LS174T. Kind of experiment: Induction of cell cycle arrest in human LS174T cells assessed as accumulation of cells at sub-G1 phase at 20 uM measured at 48 hrs by RNase A/propidium iodide staining based flow cytometric analysis (reference value: 0.7 %). The class given is functional.
Experiment [8] has as its system LS174T. Kind of experiment: Inhibition of Wnt/beta-catenin transactivation signalling in human LS174T cells transfected with renilla luciferase and TOPFlash reporter gene incubated for 24 hrs by dual-luciferase assay. The class given is cell-based. To be noted: dose 2.5-20 µM, DDE = dose-dependent effect.
Experiment [9] relates to LS174T. Kind of experiment: Induction of cell cycle arrest in human LS174T cells assessed as downregulation of CDK2 expression measured after 24 hrs by Western blot analysis. The class given is functional, cell-based. To be noted: dose 5-20 µM, DDE = dose-dependent effect.
Experiment [10] concerns LS174T. Description: Induction of cell cycle arrest in human LS174T cells assessed as accumulation of cells at S phase at 20 uM measured at 48 hrs by RNase A/propidium iodide staining based flow cytometric analysis (reference value: 11.4 %). The class given is functional.
In experiment [11] the test system is LS174T. Kind of experiment: Induction of cell cycle arrest in human LS174T cells assessed as accumulation of cells at sub-G1 phase at 20 uM measured at 24 hrs by RNase A/propidium iodide staining based flow cytometric analysis (reference value: 0.7 %). The class given is functional.

On to `O=c1c2ccccc2nc2n1CCc1c-2[nH]c2ccccc12` [RUTAECARPINE], for which the Activity in experiment [1] is 1.3%; in experiment [5] it was 7%; in experiment [6], 89.5%; in [7], 13.9%; in experiment [9], “Dde”; in experiment [10], 4.7%. In addition, in experiment [11], the Activity turned out to be 2.7%. The IC50 in [2] and in [3] was more than 50 µM throughout. Further, the inhibition result in experiment [4] and in experiment [8] was “Dde” throughout.
